Results published in ChEMBL document CHEMBL1817662, “Swerilactones L-O, secoiridoids with C₁₂ and C₁₃ skeletons from Swertia mileensis” (J Nat Prod, 2011).
pIC50: −log10 of the molar value.

Legend:
[1] = Cytotoxicity in human HepG2(2.2.15) cells after 72 hrs by MTT assay; type: cell-based
[2] = Selectivity index, ratio of CC50 for human HepG2(2.2.15) cells to IC50 for HBeAg antigen secretion in HBV infected in human HepG2(2.2.15) cells; type: functional
Hepatitis B virus [3] = test: Antiviral activity against HBV infected in human HepG2(2.2.15) cells assessed as reduction in HBsAg antigen secretion after 72 hrs by ELISA; type: functional, organism-based; details: HepG2 2.2.15, 72 h
Hepatitis B virus [4] = test: Antiviral activity against HBV infected in human HepG2(2.2.15) cells assessed as reduction in HBeAg antigen secretion after 72 hrs by ELISA; type: functional, organism-based; details: HepG2 2.2.15, 72 h
[5] = Selectivity index, ratio of CC50 for human HepG2(2.2.15) cells to IC50 for HBsAg antigen secretion in HBV infected in human HepG2(2.2.15) cells; type: functional

Structure (SMILES): Nc1ccn([C@@H]2CS[C@H](CO)O2)c(=O)n1 [LAMIVUDINE]
- CC50 at 72 h [1]: 33200 µM
- Ratio CC50/IC50 [2]: 1.1

Structure (SMILES): CC(=O)C[C@@H]1O[C@@H](C)C(=O)C2=C1C(=O)OCC2 [Swerilactone L]
- pIC50 (Hepatitis B virus [3]): 2.83
- pIC50 (Hepatitis B virus [4]): 3.06
- CC50 at 72 h [1]: 1430 µM
- Ratio CC50/IC50 [5]: <1
- Ratio CC50/IC50 [2]: 1.62

Structure (SMILES): CC(=O)c1cc2c(c([C@H](C)O)c1)CCOC2=O [Swerilactone M]
- pIC50 (Hepatitis B virus [3]): 2.92
- pIC50 (Hepatitis B virus [4]): < 2.57
- CC50 at 72 h [1]: 1840 µM
- Ratio CC50/IC50 [5]: 1.53
- Ratio CC50/IC50 [2]: <1

Structure (SMILES): CC(=O)C[C@H](O)c1cccc2c1CCOC2=O [Swerilactone N]
- pIC50 (Hepatitis B virus [3]): < 3.29
- pIC50 (Hepatitis B virus [4]): < 3.29
- CC50 at 72 h [1]: > 510 µM

Structure (SMILES): CC(=O)/C=C/c1cccc2c1CCOC2=O [Swerilactone O]
- pIC50 (Hepatitis B virus [3]): < 2.84
- pIC50 (Hepatitis B virus [4]): < 2.84
- CC50 at 72 h [1]: > 1440 µM
